Laboratory results published in the supplement of paper PMC9701192.
Counter-ions that a name gives are not always drawn. ± gives the uncertainty stated by the source.

How the values were obtained:
Assay in all cases: mass response relative to vehicle control (EMD distance of treated vs reference mass distribution minus control baseline) (% of mean reference cell mass); higher = larger drug-induced change in single-cell mass distribution (stronger response)
[1] = tested on: MM1S ATCC
Experimental: (§1)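 Cancer cell lines were treated in vitro with drugs at the listed doses (about 24 h; 0.25% DMSO vehicle). Single-cell buoyant mass was measured on suspended microchannel resonator instruments with CNN image curation, 2500 cells per condition. Mass response is the Earth Mover's Distance to vehicle-treated reference cells as % of mean reference mass.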

[2] = tested on: MDA-MB-361
Experimental: as §1

[3] = tested on: PC9
Experimental: as §1

[4] = tested on: MOLM-13
Experimental: as §1

Nc1cccc2c1CN(C1CCC(=O)NC1=O)C2=O (configuration not stated) [Lenalidomide]
mass response ([1]; 0.1 µM): 1.82 ± 5.2
mass response ([1]; 1 µM): 4.81 ± 3.5
mass response ([1]; 10 µM): 4.13 ± 1.8
mass response ([1]; 0.0001 M): 14.4 ± 1.9

CCC1=C[C@@H]2CN(C1)Cc1c([nH]c3ccccc13)[C@@](C(=O)OC)(c1cc3c(cc1OC)N(C)[C@H]1[C@@](O)(C(=O)OC)[C@H](OC(C)=O)[C@]4(CC)C=CCN5CC[C@]31[C@@H]54)C2 [Vinorelbine Tartrate]
mass response ([2]; 0.002 µM): 0.302 ± 2.8
mass response ([2]; 0.02 µM): 13 ± 0.57
mass response ([2]; 0.2 µM): 14.6 ± 1.1
mass response ([2]; 2 µM): 13.1 ± 1.9

N.N.[Cl][Pt][Cl] [Cisplatin]
mass response ([2]; 10 µM): 3.9 ± 9.3
mass response ([2]; 20 µM): 2.2 ± 2.3
mass response ([2]; 50 µM): 4.96 ± 1.6
mass response ([2]; 0.0001 M): 19.4 ± 2.7

COc1cc2ncnc(Nc3ccc(F)c(Cl)c3)c2cc1OCCCN1CCOCC1 [Gefitinib]
mass response ([3]; 0.05 µM): 7.94 ± 10
mass response ([3]; 0.5 µM): 23.1 ± 11
mass response ([3]; 5 µM): 35.1 ± 9.7
mass response ([3]; 50 µM): 81.56 ± 0.43

CC(=O)O[C@H]1C(=O)[C@@]2(C)[C@H]([C@H](OC(=O)c3ccccc3)[C@]3(O)C[C@H](OC(=O)[C@H](O)[C@@H](NC(=O)c4ccccc4)c4ccccc4)C(C)=C1C3(C)C)[C@]1(OC(C)=O)CO[C@@H]1C[C@@H]2O [Paclitaxel]
mass response ([3]; 0.005 µM): 0.247 ± 0.78
mass response ([3]; 0.025 µM): 26.9 ± 1.3
mass response ([3]; 0.05 µM): 30.7 ± 0.9
mass response ([3]; 0.1 µM): 30.6 ± 1.4

COc1cc2ncnc(Nc3ccc(F)c(Cl)c3)c2cc1NC(=O)/C=C/CN1CCCCC1 [Dacomitinib]
mass response ([3]; 0.5 µM): 14.47 ± 0.087
mass response ([3]; 5 µM): 25.2 ± 0.96
mass response ([3]; 20 µM): 55.6 ± 1.2
mass response ([3]; 50 µM): 62.57 ± 0.055

CS(=O)(=O)CCNCc1ccc(-c2ccc3ncnc(Nc4ccc(OCc5cccc(F)c5)c(Cl)c4)c3c2)o1 [Lapatinib]
mass response ([2]; 0.1 µM): 0.147 ± 0.5
mass response ([2]; 1 µM): 6.42 ± 1.7
mass response ([2]; 10 µM): 19.6 ± 1.1
mass response ([2]; 0.0001 M): 19.5 ± 2.4

O=C(/C=C\n1cnc(-c2cc(C(F)(F)F)cc(C(F)(F)F)c2)n1)NNc1cnccn1 [Selinexor]
mass response ([1]; 0.005 µM): -0.878 ± 0.35
mass response ([1]; 0.05 µM): 4.05 ± 1.2
mass response ([1]; 0.5 µM): 12.7 ± 3.1
mass response ([1]; 5 µM): 12 ± 3.1

COc1cccc2c1C(=O)c1c(O)c3c(c(O)c1C2=O)C[C@@](O)(C(=O)CO)C[C@@H]3O[C@H]1C[C@H](N)[C@H](O)[C@H](C)O1 [Doxorubicin]
mass response ([3]; 0.15 µM): 33.3 ± 6.1
mass response ([3]; 0.625 µM): 22.9 ± 4.7
mass response ([3]; 2.5 µM): 6.7 ± 3
mass response ([3]; 10 µM): 40.9 ± 3.2

CCc1nc(C(N)=O)c(Nc2ccc(N3CCC(N4CCN(C)CC4)CC3)c(OC)c2)nc1NC1CCOCC1 [Gilteritinib]
mass response ([4]; 0.002 µM): -3.18 ± 4.6
mass response ([4]; 0.02 µM): 13.3 ± 3.4
mass response ([4]; 0.2 µM): 35 ± 2.9
mass response ([4]; 2 µM): 33.9 ± 5.4

Nc1nc2[nH]cc(CCc3ccc(C(=O)N[C@@H](CCC(=O)O)C(=O)O)cc3)c2c(=O)[nH]1 [Pemetrexed]
mass response ([2]; 0.5 µM): 14.4 ± 3.6
mass response ([2]; 1 µM): 15.2 ± 2.1
mass response ([2]; 5 µM): 19 ± 2.9
mass response ([2]; 50 µM): 21.8 ± 2.8

COc1cc([C@@H]2c3cc4c(cc3[C@@H](O[C@@H]3O[C@@H]5CO[C@@H](C)O[C@H]5[C@H](O)[C@H]3O)[C@H]3COC(=O)[C@H]23)OCO4)cc(OC)c1O [Etoposide]
mass response ([3]; 0.01 µM): 0.492 ± 1.6
mass response ([3]; 0.1 µM): 0.732 ± 2.1
mass response ([3]; 1 µM): 12.3 ± 1
mass response ([3]; 10 µM): 36.2 ± 0.97

C/C(=C\c1csc(C)n1)[C@@H]1C[C@@H]2O[C@]2(C)CCC[C@H](C)[C@H](O)[C@@H](C)C(=O)C(C)(C)[C@@H](O)CC(=O)N1 [Ixabepilone]
mass response ([3]; 0.01 µM): 19.5 ± 1.5
mass response ([3]; 0.1 µM): 37.6 ± 4.5
mass response ([3]; 1 µM): 36.7 ± 4.5
mass response ([3]; 10 µM): 36.8 ± 5.7

O=C(c1cc(Cc2n[nH]c(=O)c3ccccc23)ccc1F)N1CCN(C(=O)C2CC2)CC1 [Olaparib]
mass response ([2]; 0.1 µM): 1.31 ± 3.8
mass response ([2]; 1 µM): 1.01 ± 3.2
mass response ([2]; 10 µM): 17.9 ± 9.6
mass response ([2]; 0.0001 M): 25 ± 4

Cn1ncnc1[C@H]1c2n[nH]c(=O)c3cc(F)cc(c23)N[C@@H]1c1ccc(F)cc1 [Talazoparib]
mass response ([2]; 0.2 µM): 8.83 ± 4.3
mass response ([2]; 2 µM): 8.66 ± 2.9
mass response ([2]; 20 µM): 11.8 ± 3.6
mass response ([2]; 50 µM): 13.1 ± 6.4

CC(=O)[C@]1(O)Cc2c(O)c3c(c(O)c2[C@@H](O[C@H]2C[C@H](N)[C@H](O)[C@H](C)O2)C1)C(=O)c1ccccc1C3=O [Idarubicin]
mass response ([4]; 0.001 µM): -0.127 ± 1.4
mass response ([4]; 0.01 µM): 19.1 ± 2.9
mass response ([4]; 0.1 µM): 33.1 ± 2
mass response ([4]; 1 µM): 36.6 ± 2.1

C[C@@H]1C[C@H]2[C@@H]3CCC4=CC(=O)C=C[C@]4(C)[C@@]3(F)[C@@H](O)C[C@]2(C)[C@@]1(O)C(=O)CO [Dexamethasone]
mass response ([1]; 0.02 µM): 13.7 ± 1.9
mass response ([1]; 0.2 µM): 14.8 ± 2.1
mass response ([1]; 2 µM): 14.5 ± 2
mass response ([1]; 20 µM): 13.5 ± 2

CC1(COc2ccc3c(c2)ncn3-c2ccc3cccc(N4CCC(N)CC4)c3n2)COC1 [Crenolanib]
mass response ([4]; 0.001 µM): 3.34 ± 2
mass response ([4]; 0.01 µM): 31 ± 1.7
mass response ([4]; 0.1 µM): 37.3 ± 0.76
mass response ([4]; 1 µM): 37.99 ± 0.31
